{"source": "patent US20230255974A1", "about": "“USE OF THYROMIMETICS FOR THE TREATMENT OF CANCER” (THE UNIVERSITY OF VERMONT, priority 2020, published 2023)", "key": {"[1]": {"tested_on": "SW1736 cells (SW-EV, SW-TRβ)", "test": "Growth assay (live cell imaging), T3", "assay_type": "cell-based, human", "description": "Culture of thyroid cell lines. Anaplastic thyroid cancer cell lines (SW1736 and KTC-2) were cultured in RPMI 1640 growth media with L-glutamine (300 mg/L), sodium pyruvate and nonessential amino acids (1%) (Cellgro/Mediatech), supplemented with 10% fetal bovine serum (Life Technologies) and penicillin-streptomycin ([…]) (Cellgro/Mediatech) at 37° C., 5% CO2, and 100% humidity. The cell lines were generously provided by Dr. John Copland III (Mayo Clinic). Lentivirally modified SW1736 cells were generated as recently described (Gillis et al., “Thyroid Hormone Receptor β Suppression of RUNX2 is Mediated by Brahma Related Gene 1 Dependent Chromatin Remodeling.” Endocrinol. 159(6):2484-94 (2018), which is hereby incorporated by reference in its entirety) with either an empty vector (SW-EV) or to overexpress TRβ (SW-TRβ). SW-EV and SW-TRβ were grown in the above conditions with the addition of 1 μg/ml puromycin (Gold Bio). All cells were authenticated by the Vermont Integrative Genomics Resource at the University of Vermont using short tandem repeat profiles and Promega GenePrint10 System (SW1736, May 2019; KTC-2, October 2019).\nGrowth Assays. Cell growth was measured either through live cell imaging or by cell counting at discrete points. Live cell imaging was used to assess the growth kinetics of SW-EV and SW-TRβ. To perform live cell imaging, 5000 cells were plated per well in 24 well plates. After 24 hours in phenol red free, charcoal stripped media, media was supplemented with either 10^−8 M T3 or equivolume vehicle (NaOH). Every two hours cells were imaged with a Lionheart automated microscope (BioTek) and quantified with Gen5 software (BioTek). The cells entered the log phase of growth at approximately 48 hours, and the portion of the curve following this point was used to calculate the doubling time of the cells. In order to measure growth manually, 25,000 cells were plated per well in a six well plate. […] Every 24 hours cell counts were assessed by hemocytometer."}, "[2]": {"tested_on": "SW1736 cells (SW-EV, SW-TRβ)", "test": "Soft agar colony formation assay", "assay_type": "cell-based, human", "details": "10^−8 M T3, 14 days", "description": "Soft Agar Colony Formation Assay. Soft agar colony forming assays were used to assess anchorage-independent growth. A layer 0.50% agar in thyroid media (as described) was solidified in 6-well cell culture plates. SW-EV or SW-TRβ cells were plated in a second layer of 0.25% agar in thyroid media. 200 uL of thyroid media was maintained at the top of each well to prevent the agar from drying. […] Colonies were allowed to grow for 14 days. Live SW-EV and SW-TRβ colonies were detected via GFP expression using a ChemiDoc XRS+ (Bio-Rad Laboratories). Colonies were then counted with ImageJ using the Colony Counter plugin."}, "[3]": {"tested_on": "SW1736 cells (SW-EV, SW-TRβ)", "test": "Tumorsphere assay, T3", "assay_type": "cell-based, human", "details": "10^−8 M T3, seven days"}, "[4]": {"tested_on": "interferon/JAK1/STAT1 pathway", "test": "Interferon/JAK1/STAT1 pathway expression (immunoblot, qPCR)", "assay_type": "cell-based, human", "details": "SW-TRβ", "description": "Immunoblot Analysis. Proteins were isolated from whole cells in lysis buffer (20 mM Tris-HCl [pH 8], 137 mM NaCl, 10% glycerol, 1% Triton X-100, and 2 mM EDTA) containing Protease Inhibitor Cocktail 78410 (Thermo Scientific). Proteins were resolved by polyacrylamide gel electrophoresis on 10% sodium dodecyl sulfate gels EC60752 (Life Technologies) and immobilized onto nitrocellulose membranes (GE Healthcare) by electroblot (Bio-Rad Laboratories). Specific proteins were detected by immunoblotting with the indicated antibodies (Table 4); immunoreactive proteins were detected by enhanced chemiluminescence (Thermo Scientific) on a ChemiDoc XRS+ (Bio-Rad Laboratories). RNA Extraction and Quantitative Real-Time PCR (qRT-PCR). Total RNA was extracted using RNeasy Plus Kit (Qiagen) according to manufacturer's protocol. cDNA was then generated using the 5×RT Mastermix (ABM). Gene expression to validate RNASeq analysis was quantified by qRT-PCR using 2×SuperGreen Mastermix (ABM) on a QuantStudio 3 real-time PCR system (Applied Biosystems). Fold change in gene expression compared to endogenous controls was calculated using the ddCT method."}, "[5]": {"tested_on": "SW1736 cells (SW-EV, SW-TRβ)", "test": "RNA-seq gene expression in SW-EV and SW-TRβ", "assay_type": "cell-based, human", "description": "RNA-seq Library Construction and Quality Control. 80% confluent monolayers of SW-EV and SW-TRβ cells were hormone starved for 24 hours in phenol red free RPMI with charcoal-stripped fetal bovine serum. 10^−8M T3 was added and incubated for 24 hours prior to sample collection. Total RNA was extracted and purified using RNeasy Plus Kit (Qiagen) according to manufacturer's protocol. Purity of the total RNA samples was assessed via BioAnalyzer (Agilent) and samples with a RIN score >7 were used for library construction. rRNA was depleted using 1 μg of total RNA with the RiboErase kit (KAPA Biosystems). Strand-specific Illumina cDNA libraries were prepared using the KAPA Stranded RNA-Seq library preparation kit with 10 cycles of PCR (KAPA Biosystems). Library quality was assessed by BioAnalyzer (Agilent) to ensure an average library size of 300 bp and the absence of excess adaptors in each sample. RNA-Seq libraries were pooled and sequenced on the Illumina HiSeq 1500 with 50 bp single-end reads. Quality scores across sequenced reads were assessed using FASTQC. […] For alignment and transcript assembly, the sequencing reads were mapped to hg38 using STAR. Sorted reads were counted using HTSeq and differential expression analysis was performed using DESeq2."}, "[6]": {"tested_on": "MDA-MB-468 cells (EV, TRβ)", "details": "MDA-MB-468 in the presence of TRβ, 10 nM, 3 days", "description": "Triple negative breast cancer were examined next. […] TNBC cancers and other advanced solid tumors have lower endogenous levels of expression of TRβ. […] Cell migration was measured by scratch assay (FIG. 28). […] Data are mean+/−SD; *indicates p<0.05 determined by t-test."}, "[7]": {"tested_on": "NthyOri thyroid cells", "details": "normal-like NthyOri thyroid cells"}}}
{"smiles": "N[C@@H](Cc1cc(I)c(Oc2ccc(O)c(I)c2)c(I)c1)C(=O)O", "note": "[T3, (2S)-2-amino-3-[4-(4-hydroxy-3-iodophenoxy)-3,5-diiodophenyl]propanoic acid]", "values": [{"measurement": "growth rate", "setting": "[1]; SW-EV, 10^−8 M T3 vs vehicle", "value": "modestly decreased the growth rate"}, {"measurement": "cellular growth", "setting": "[1]; SW-TRβ (TRβ overexpression), 10^−8 M T3", "value": "profoundly reduced cellular growth"}, {"measurement": "doubling time", "setting": "[1]; SW-TRβ, T3 treated", "value": "greatest doubling time"}, {"measurement": "anchorage-independent colony growth", "setting": "[2]; SW-EV", "value": "reduced anchorage-independent colony growth"}, {"measurement": "anchorage-independent colony growth", "setting": "[2]; SW-TRβ", "value": "nearly ablated colony growth"}, {"measurement": "number of tumorspheres formed", "setting": "[3]; SW-EV", "value": "no effect on the number of tumorspheres"}, {"measurement": "tumorsphere growth", "setting": "[3]; SW-TRβ", "value": "blocked almost all tumorsphere growth"}, {"measurement": "expression of IRF1 target genes APOL6 and TNFSF10 (qPCR)", "setting": "[4]; T3", "value": "Induction of IRF1 target genes APOL6 and TNFSF10"}, {"measurement": "expression of STAT1 target genes IRF1 and TAP1 (qPCR)", "setting": "[4]; T3", "value": "increased the expression of STAT1 target genes IRF1 and TAP1"}, {"measurement": "expression of JAK1 and STAT1", "setting": "[4]; T3 treatment", "value": "significantly increased"}, {"measurement": "expression of epithelial marker CDH1", "setting": "[5]; SW1736-TRβ, T3 treated", "value": "increased expression"}, {"measurement": "expression of mesenchymal marker VIM", "setting": "[5]; SW1736-TRβ, T3 treated", "value": "decreased"}, {"measurement": "expression of cluster 1 genes in the ILK signaling IPA pathway", "setting": "[5]; SW-EV and SW-TRβ, T3", "value": "repressed"}, {"measurement": "thyroid differentiation markers", "setting": "[5]; SW-TRβ, T3 treated", "value": "significantly induced"}, {"measurement": "thyroid differentiation score (TDS)", "setting": "[5]; SW-TRβ, T3 treated", "value": "significantly higher TDS"}, {"measurement": "expression of thyroid-specific cancer stem cell genes ALDH, POU5F1, CD44, FUT4, PROM1", "setting": "[5]; TRβ overexpression and T3, RNA-seq", "value": "significantly reduced expression of the thyroid-specific cancer stem cell genes"}, {"measurement": "cell migration and growth", "setting": "[6]", "value": "reduced cell migration and growth"}, {"measurement": "cell phenotypic or signaling changes", "setting": "[7]", "value": "No cell phenotypic changes or signaling changes were observed"}]}
